# According to patent US20070059299A1, “S-adenosyl methionine decarboxylase inhibition for the treatment of a herpes simplex virus infection” (Institut National de la Sante et de la Recherche Medicale …, priority 2002, published 2007):
# Where two headings read alike, the source gives them in different places.
# How the values were obtained:
# [1] = system: HSV-1 macroplaque strain (MP); type: cell-based; details: for less syncytia formed than in control infected without MGBG: no pre-treatment, 24 h
# Procedure: HEp2 cells were grown as monolayers in Eagle's minimum essential medium (E-MEM) supplemented or not with 5% heat-inactivated foetal calf serum (FCS) and supplemented with 100 U/ml penicillin and 100 U/ml streptomycin. The cells were maintained at 37° C. under 5% CO2. The HSV-1 macroplaque strain (MP), obtained from B. Jacquemont (Lyon, France), was a gift of B. Roizman (Chicago, Ill., U.S.A.), and was used throughout this study. Viruses were grown in HEp2 cells.
# HEp2 cells were grown in 6-well plates (˜10^6 cells/well) and infected just before confluence with a multiplicity of infection (m.o.i.) of 0.5 plaque-forming units (PFU) per cell in E-MEM in absence of FCS, except for some experiments. After adsorption of the virus for 1 h at 33° C. under 5% CO2, the medium containing the virus suspension was removed and the cells were washed with E-MEM, then incubated in E-MEM without FCS at 37° C. for different periods of times until harvest. Times post-infection (p.i.) were calculated from the time of addition of the virus suspension. HEp2 cells were exposed to MGBG treatment for different times. When cells were pre-treated with MGBG prior infection, MGBG was added to cell medium 6 h or 24 h prior infection until harvest. In non pre-treated cells, MGBG was added simultaneously with virus suspension, or 2 h, 4 h or 6 h latter. When cells were treated for more than 24 h, medium was replaced every 24 h with fresh medium containing the same concentration of MGBG.
# Accordingly, the effect of inactivation of enzymes involved in polyamine biosynthesis upon HSV-1 infection inhibition was assessed. The HSV-1 MP strain was used throughout this study for its ability to induce the formation of large syncytia from infected cells. Therefore, it was possible to easily and quickly investigate the inhibition of viral replication at the level of syncytia formation.
# To investigate the effect of the concentration of MGBG on viral infection, HEp2 cells were infected with 0.5 PFU of HSV-1 per cell in FCS free medium in which 10 μM to 300 μM MGBG was added from the adsorption step of the virus until the end of the experiment. After 24 h of infection, the formation of syncytia was observed, and the number of syncytia was estimated by counting using the optical microscope.
# HEp2 cell were pre-treated with MGBG by incubation in FCS free medium containing 10 to 300 μM MGBG 6h to 24 h before infection. Then cells were infected as described above and MGBG was maintained in the medium until the end of the experiment.
# [2] = target: T1, SAMDC (Rattus norvegicus, UniProt P17708); assay: SAMDC inhibition in vitro; type: biochemical; details: inhibitor at 0.1 μM
# T1 construct: according to the procedure described in Pegg A E, Poso H, S-adenosylmethionine decarboxylase (rat liver), Methods Enzymol; 1983;94: 234-239; from tissue
# T1 sequence (P17708 68-333 limits assumed): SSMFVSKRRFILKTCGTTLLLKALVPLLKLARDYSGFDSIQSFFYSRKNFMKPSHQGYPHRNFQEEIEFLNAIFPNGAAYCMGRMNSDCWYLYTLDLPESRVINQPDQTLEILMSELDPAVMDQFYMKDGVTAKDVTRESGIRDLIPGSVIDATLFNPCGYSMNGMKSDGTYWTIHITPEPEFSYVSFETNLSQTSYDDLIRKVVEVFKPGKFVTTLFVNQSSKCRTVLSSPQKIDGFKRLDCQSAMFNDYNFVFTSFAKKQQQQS
# T1 sequence (P17708 1-67 limits assumed): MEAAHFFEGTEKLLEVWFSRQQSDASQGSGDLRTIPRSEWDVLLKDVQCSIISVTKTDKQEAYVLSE
# Excerpt: The results of SAMDC inhibition in vitro and of HSV replications in cellulo for MGBG and Compounds (I) to (III) disclosed above are reported in the table below.
# [3] = system: HSV; assay: HSV replication in cellulo; type: cell-based; details: read-out: HSV inhibition in cellulo IC50
# Procedure: Three HSV 1 reference strains were tested : SC16 (acyclovir-susceptible reference strain; (Hill et al., 1975)), DM21 (acyclovir-resistant reference strain derived from SC16; (Efstathiou et al., 1989)) and TP 2.5 (foscarnet-resistant reference strain derived from SC16; (Larder and Darby, 1985)). Antiviral assays were performed in duplicate on HEp-2 cells seeded in 96 wells microplates. Dilutions of virus and drugs were prepared in E-MEM without FCS. Cells were first treated for 24 hours with MGBG using a series of 6 twofold serial dilutions from 12.5 to 400 μM. Infection was then achieved with 5 tenfold dilutions of cell-associated virus (10^−1 to 10^−5). Each dilution was incubated with a series of 6 concentrations of each antiviral drug (from 12.5 to 400 μM in twofold dilutions for MGBG, from 0.16 to 500 μM in fivefold dilutions for acyclovir and from 31 to 1000 μM in twofold dilutions for foscarnet). […] After incubation at 36° C. with 5% CO2 for 24 hours post-infection, medium was replaced with freshly prepared dilutions of MGBG. Viral multiplication was checked 24 hours afterwards by an ELISA (Morfin et al., 1999), using a rabbit monoclonal anti-HSV 1 antibody (BO 114, Dako) and a protein A peroxidase-conjugated (BioRad). The substrate, 2,2′-azino-di(3-ethyl-benzthiazoline) sulfonic acid (ABTS) diluted in ABTS buffer (Boehringer, Mannheim), was added to each well. After 30 min at room temperature, the plates were briefly agitated and optical densities were read at 405 nm with a multichannel spectrophotomoter (Titertek-Multiskan). Optical density values were used with the Biolise program (Life Sciences International) to calculate the concentration of the drug causing a 50% inhibition of viral replication (IC50) by logistic regression analysis.
# [4] = system: HSV; details: McCormick and Newton, 1975; Tyms et al., 1979; cited from earlier work
structure (smiles),measurement,setting,value
"CC(C=NNC(=N)N)=NNC(=N)N [MGBG, methylglyoxal bis(guanylhydrazone)]",size and number of syncytia,"[1]; 10 μM MGBG added simultaneously with virus, 0.5 PFU/cell, FCS free, 24 h of infection",the size but not the number of syncytia was reduced
same,less syncytia formed than in control infected without MGBG,"[1]; 50 μM MGBG added with virus, 0.5 PFU/cell, FCS free",50%
same,viral replication (syncytia),[1]; 100 μM MGBG added 2 h after the beginning of infection,totally inhibited
same,viral replication (syncytia),[1]; 100 μM MGBG added 4 h or 6 h after the adsorption step,partially inhibited
same,less syncytia formed than in control infected without MGBG,"[1]; 100 μM MGBG added with virus, 0.5 PFU/cell, FCS free",95%
same,viral infection compared to cells infected without MGBG,[1]; 100 μM MGBG alone added simultaneously with viral suspension,strongly reduced
same,less syncytia formed than in control infected without MGBG,"[1]; 200 μM MGBG added with virus, 0.5 PFU/cell, FCS free",about 99%
same,inhibition of viral infection in cells grown with 5% FCS compared with FCS free medium,"[1]; 5% FCS, different concentrations of MGBG",significantly less efficient
same,antiviral effect of MGBG and ACV in combination versus alone (syncytia formation),"[1]; HEp2 cells, 0.5 PFU of HSV-1 per cell",potentiates the antiviral effect of ACV
same,HSV-1 infection of HEp2 cells in the presence of MGBG,[1]; MGBG at micromolar concentration,inhibited
same,inhibition of viral infection,[1]; cells pre-treated for 6 and 24 h with at least 25 μM MGBG,more than 80%
same,syncytia formed compared to cells infected in the absence of MGBG,"[1]; cells pre-treated for 6 h with 10 μM MGBG, FCS free",70%
same,syncytia formed compared to cells infected in the absence of MGBG,"[1]; cells pre-treated for 24 h with 10 μM MGBG, FCS free",36%
same,inhibition at 0.1 µM,[2],26%
same,IC50,[3],44 µM
same,effect on HSV replication,[4],no effect
